Results taken from ChEMBL document CHEMBL4033705, “Screening for bioactive natural products from a 67-compound library of Glycyrrhiza inflata” (Bioorg Med Chem, 2017).
Where a SMILES comes first, the peptide text is derived from it. The star is where a group is joined. Cbz = O=C(OCc1ccccc1)*

What was measured:
[1] = (§1) Growth inhibition of human HEK293T cells at 10 uM after 24 hrs by MTS assay relative to control; type: cell-based, HEK-293T; details: HEK293T cells, read-out: GI
HEK-293T = experiment: as §1; type: cell-based; details: hek-293t, 24 h, 10 µM
[2] = (§2) Growth inhibition of human LO2 cells at 10 uM after 24 hrs by MTS assay relative to control; type: cell-based, L02; details: LO2 cells, read-out: GI
L02 = experiment: as §2; type: cell-based; details: l02, 24 h, 10 µM
MCF7 [3] = experiment: Cytotoxicity against human MCF7 cells assessed as reduction in cell viability after 24 hrs by MTS assay; type: functional, cell-based; details: MCF7, 24 h
SW480 [4] = experiment: Cytotoxicity against human SW480 cells assessed as reduction in cell viability after 24 hrs by MTS assay; type: functional, cell-based; details: SW480, 24 h
MCF7 [5] = experiment: Growth inhibition of human MCF7 cells at 10 uM after 24 hrs by MTS assay relative to control; type: functional; details: MCF7, 24 h, read-out: GI
SW480 [6] = experiment: Growth inhibition of human SW480 cells at 10 uM after 24 hrs by MTS assay relative to control; type: functional; details: SW480, 24 h, read-out: GI
HepG2 [7] = experiment: Growth inhibition of human HepG2 cells at 10 uM after 24 hrs by MTS assay relative to control; type: functional; details: HepG2, 24 h, read-out: GI
RAW264.7 [8] = experiment: Antiinflammatory activity in mouse RAW264.7 cells assessed as inhibition of LPS-induced NO production at 10 uM after 24 hrs by Griess reagent based assay relative to control; type: functional; details: RAW264.7, 24 h
Homo sapiens [9] = organism: Homo sapiens; experiment: Inhibition of LPS-induced NF-kappaB transcription (unknown origin) expressed in human SW480 cells at 10 uM by luciferase reporter gene assay; type: cell-based
[10] = molecular target: T1, Tyrosine-protein phosphatase non-receptor type 1 (Homo sapiens) (UniProt P18031); experiment: Inhibition of recombinant human PTP1B using p-nitrophenyl phosphate as substrate at 10 uM after 30 mins relative to control
T1 sequence (whole entry): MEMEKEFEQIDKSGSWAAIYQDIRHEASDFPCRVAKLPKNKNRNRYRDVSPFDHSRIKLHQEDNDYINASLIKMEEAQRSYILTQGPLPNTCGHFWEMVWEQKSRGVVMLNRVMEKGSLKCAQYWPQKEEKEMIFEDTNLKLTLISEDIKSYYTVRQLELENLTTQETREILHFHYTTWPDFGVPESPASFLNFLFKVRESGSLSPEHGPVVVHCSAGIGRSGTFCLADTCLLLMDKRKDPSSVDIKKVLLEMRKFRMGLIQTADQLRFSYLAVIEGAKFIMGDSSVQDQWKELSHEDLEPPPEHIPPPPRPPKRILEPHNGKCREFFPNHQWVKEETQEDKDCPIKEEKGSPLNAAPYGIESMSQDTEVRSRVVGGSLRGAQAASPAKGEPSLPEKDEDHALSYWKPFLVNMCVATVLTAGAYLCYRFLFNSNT

[11] = molecular target: Mushroom tyrosinase (Agaricus bisporus) (UniProt O42713+Q00024+C7FF04+C7FF05); experiment: Inhibition of mushroom tyrosinase at 10 uM using L-tyrosine as substrate incubated for 15 mins followed by substrate addition relative to control
RAW264.7 [12] = experiment: Antiinflammatory activity in mouse RAW264.7 cells assessed as inhibition of LPS-induced NO production at 20 uM after 24 hrs by Griess reagent based assay relative to control; type: functional; details: RAW264.7, 24 h
HepG2 [13] = experiment: Cytotoxicity against human HepG2 cells assessed as reduction in cell viability after 24 hrs by MTS assay; type: functional, cell-based; details: HepG2, 24 h
[14] = molecular target: T2, Tyrosine-protein phosphatase non-receptor type 1 (Homo sapiens, UniProt P18031); experiment: Inhibition of recombinant human PTP1B using p-nitrophenyl phosphate as substrate after 30 mins
T2 sequence (P18031 whole entry): T1 sequence (whole entry)

RAW264.7 [15] = experiment: Antiinflammatory activity in mouse RAW264.7 cells assessed as inhibition of LPS-induced NO production after 24 hrs by Griess reagent based assay; type: functional, cell-based; details: RAW264.7, 24 h
Mushroom tyrosinase = Mushroom tyrosinase (Agaricus bisporus, UniProt O42713+Q00024+C7FF04+C7FF05); experiment: Inhibition of mushroom tyrosinase using L-tyrosine as substrate incubated for 15 mins followed by substrate addition
[16] = Inhibition of LPS-induced NF-kappaB transcription (unknown origin) expressed in human SW480 cells by luciferase reporter gene assay; type: cell-based
Homo sapiens [17] = organism: Homo sapiens; experiment: Inhibition of LPS-induced NF-kappaB transcription (unknown origin) expressed in human SW480 cells at 20 uM by luciferase reporter gene assay; type: cell-based

| SMILES | inhibition [10] | inhibition [11] | IC50 [14] | IC50 (RAW264.7 [15]) | IC50 (Mushroom tyrosinase) | IC50 [16] | inhibition at 24 h, 10 µM [1] | Activity (HEK-293T) | inhibition at 24 h, 10 µM [2] | Activity (L02) | IC50 (MCF7 [3]) | IC50 (SW480 [4]) | inhibition of growth at 10 µM (MCF7 [5]) | inhibition of growth at 10 µM (SW480 [6]) | inhibition of growth at 10 µM (HepG2 [7]) | inhibition at 10 µM (RAW264.7 [8]) | inhibition (Homo sapiens [9]) | inhibition at 20 µM (RAW264.7 [12]) | IC50 (HepG2 [13]) | inhibition (Homo sapiens [17]) |
| --- | --- | --- | --- | --- | --- | --- | --- | --- | --- | --- | --- | --- | --- | --- | --- | --- | --- | --- | --- | --- |
| CC(C)=CCc1cc([C@@H]2CC(=O)c3c(O)cc(O)c(CC=C(C)C)c3O2)ccc1O [LESPEDEZAFLAVANONE B] | 46% | 5% |  |  |  |  | 6% | Non-Toxic | 12% | Non-Toxic | 13.1 µM | 12.5 µM | 86% | 81% | 24% | 14% | 34% |  |  |  |
| COc1cc(/C=C/C(=O)CC(=O)/C=C/c2ccc(O)c(OC)c2)ccc1O [CURCUMIN] |  |  |  |  |  |  |  |  |  |  |  |  |  |  |  |  |  | 70% |  |  |
| CC(C)=CCc1c(O)cc2occ(-c3cc(O)c4c(c3)C=CC(C)(C)O4)c(=O)c2c1O | 92% | 1% | 1.48 µM |  |  |  | 11% | Non-Toxic | 5% | Non-Toxic | 7.27 µM | 7.87 µM | 92% | 82% | 89% | 0% | 14% |  | 3.54 µM |  |
| CC(C)=CCc1cc([C@@H]2CC(=O)c3ccc(O)c(CC=C(C)C)c3O2)ccc1O [GLABROL] | 92% | 8% | 0.31 µM |  |  |  | 36% |  | 16% |  | 7.62 µM | 5.15 µM | 97% | 98% | 98% | 6% | 21% |  | 2.83 µM |  |
| CC1(C)C=Cc2c(O)ccc(-c3coc4cc(O)cc(O)c4c3=O)c2O1 | 36% | 90% |  |  | 0.8 µM |  | 1% |  | 24% |  |  |  | 28% | 15% | 22% | 21% | 12% |  |  |  |
| COc1c(/C=C/C(=O)c2ccc(O)c(O)c2)ccc(O)c1CC=C(C)C | 75% | 11% |  | 9.35 µM |  | 2.44 µM | 28% |  | 9% |  |  |  | 21% | 21% | 5% | 85% | 80% |  |  |  |
| CC(C)C[C@@H](C=O)NC(=O)[C@H](CC(C)C)NC(=O)[C@H](CC(C)C)NC(=O)OCc1ccccc1 (Cbz-Leu-Leu-Leu-aldehyde) |  |  |  |  |  |  |  |  |  |  |  |  |  |  |  |  |  |  |  | 70% |
| CC(C)=CCc1c(O)cc2occ(-c3ccc4c(c3O)C=CC(C)(C)O4)c(=O)c2c1O | 34% | 7% |  |  |  |  | 39% |  | 16% |  | 8.58 µM | 6.72 µM | 79% | 99% | 75% | 26% | 23% |  | 7.07 µM |  |
| CC(C)=CCc1c(O)ccc(-c2coc3c(CC=C(C)C)c(O)cc(O)c3c2=O)c1O | 96% | 7% | 0.5 µM |  |  |  | 10% | Non-Toxic | 20% | Non-Toxic | 7.47 µM | 4.62 µM | 88% | 98% | 80% | 11% | 19% |  | 5.66 µM |  |

More lines, main results first:

| inhibition [10] | inhibition [11] | IC50 [14] | IC50 (RAW264.7 [15]) | IC50 (Mushroom tyrosinase) | IC50 [16] | SMILES | inhibition at 24 h, 10 µM [1] | Activity (HEK-293T) | inhibition at 24 h, 10 µM [2] | Activity (L02) | IC50 (MCF7 [3]) | IC50 (SW480 [4]) | inhibition of growth at 10 µM (MCF7 [5]) | inhibition of growth at 10 µM (SW480 [6]) | inhibition of growth at 10 µM (HepG2 [7]) | inhibition at 10 µM (RAW264.7 [8]) | inhibition (Homo sapiens [9]) | inhibition at 20 µM (RAW264.7 [12]) | IC50 (HepG2 [13]) | inhibition (Homo sapiens [17]) |
| --- | --- | --- | --- | --- | --- | --- | --- | --- | --- | --- | --- | --- | --- | --- | --- | --- | --- | --- | --- | --- |
| 18% | 2% |  | 3.83 µM |  |  | CC(C)=CCc1c(O)cc(O)c2c(=O)cc(-c3ccc(O)cc3)oc12 |  |  |  |  |  |  | 0% | 19% | 21% | 58% | 3% |  |  |  |
| 58% | 95% |  |  | 0.25 µM |  | CC1(C)C=Cc2cc(-c3coc4cc(O)cc(O)c4c3=O)cc(O)c2O1 | 0% |  | 7% |  |  |  | 15% | 29% | 5% | 14% | 8% |  |  |  |
| 21% | 8% |  | 9.09 µM |  | 3.83 µM | C=C(C)[C@H](C)c1cc(/C=C/C(=O)c2ccc(O)cc2)c(OC)cc1O [LICOCHALCONE E] | 34% |  | 22% |  |  |  | 42% | 44% | 23% | 55% | 72% |  |  |  |
| 38% | 98% |  |  | 0.1 µM |  | CC1(C)C=Cc2c(ccc3c2OC[C@@H](c2ccc(O)cc2O)C3)O1 [GLABRIDIN] | 2% |  | 3% |  |  |  | 0% | 32% | 7% | 7% | 0% |  |  |  |
| 64% | 8% |  | 8.78 µM |  |  | COc1c(/C=C/C(=O)c2ccc(O)cc2)ccc(O)c1O | 7% |  | 6% |  |  |  | 13% | 9% | 4% | 71 to 73% | 4% |  |  |  |
